Reference: patent publication US20240423904A1, “Systems and Methods for Controlling Chemical Reactions Using Ultrasound” (priority 2023, published 2024)

How the values were obtained:
[1] = Thermally activated release of camptothecin from mechanophore bis-initiator, 1H NMR and LCMS; format: physicochemical; conditions: 24 h at 100° C. in toluene-d8, then diluted into 3:1 acetonitrile/methanol
Description: Several embodiments provide confirmation of CPT release via ^1H NMR spectroscopy and LCMS. Prior to mechanochemical activation studies, we first confirmed that camptothecin was released in polar protic solvent upon unmasking of the expected unstable furfuryl carbonate. To enable characterization, the furfuryl carbonate species was generated thermally from small molecule initiator 1-CPT. Masked furfuryl carbonate 1-CPT was dissolved in toluene-d8 and analyzed by ^1H NMR spectroscopy before and after heating for 24 h at 100° C. Comparison to spectrum of the expected maleimide fragment confirmed significant thermal retro-Diels-Alder reaction occurred under these conditions. A drop of this solution was then diluted into 3:1 acetonitrile/methanol and analyzed by LCMS (gradient of 0-50% acetonitrile/water over 4 minutes).

[2] = Stability of free CPT upon exposure to FUS, HPLC; format: physicochemical; conditions: FUS 10 min, presence or absence of GVs (1.4 nM)
Description: Experiments were performed in duplicate on a sample of CPT in water (˜3 μM). After insonation, samples were diluted 3:1 with a stock solution of IS (40 μM) and concentrations were determined from integration of the peak corresponding to CPT relative to that of the internal standard and scaled by 4/3 to account for dilution.

Raji cells = experiment: MTT cell viability assay on Raji cells; format: cell-based; conditions: Homo sapiens, 48 h, pure CPT, 2 days at 37° C.
Description: Raji cells were incubated in RPMI 1640 media with 10% fetal bovine serum and 1% antibacterial Penicillin/Streptomycin (PenStrep) at 37° C. and 5% CO2. An MTT colorimetric assay was used to quantify cell viability.
Raji cells were used to evaluate the effectiveness of CPT release for potential chemotherapy. Raji cells were incubated in RPMI 1640 media, with 10% fetal bovine serum and 1% antibacterial Penicillin/Streptomycin (PenStrep) at 37° C. and 5% CO2. The instructions provided by the manufacturer (Abcam) were followed to perform the MTT assay. Approximately 10,000 Raji cells suspended in 150 μL of media were seeded into each well of a 96-well plate. Subsequently, 50 μL of polymer sample (or pure CPT) at varying concentrations was added to corresponding wells. For calibration purposes, wells without cells and wells with only cells and media were also prepared, representing 0% and 100% cell viability, respectively. After 48 hours of incubation, cells were spun down inside the plate and media were carefully aspirated. Then 50 μL of serum free media and 50 μL of MTT solution were added to each well. Following a 3 h incubation, 150 μL MTT solution was added to each well. […] The absorbance at 590 nm was measured by a microplate reader (TECAN Spark) to quantify the cell viability in each well. Cell viability is calculated using eq.

| Structure (SMILES) | release of CPT after thermal retro-Diels-Alder reaction [1] | stability upon exposure to FUS [2] | EC50 (Raji cells) [nM] |
| --- | --- | --- | --- |
| CC[C@@]1(OC(=O)OC(C)[C@]23O[C@](COC(=O)C(C)(C)Br)(C=C2Oc2ccccc2)[C@@H]2C(=O)N(CCOC(=O)C(C)(C)Br)C(=O)[C@@H]23)C(=O)OCc2c1cc1n(c2=O)Cc2cc3ccccc3nc2-1 (stereo partly drawn) [1-CPT, ((3aR,4R,7S,7aS)-2-(2-((2-bromo-2-methylpropanoyl)oxy)ethyl)-7-(1-(((((S)-4-ethyl-3,14-dioxo-3,4,12,14-tetrahydro-1H-pyrano[3′,4′:6,7]indolizino[1,2-b]quinolin-4-yl)oxy)carbonyl)oxy)ethyl)-1,3-dioxo-6-phenoxy-1,2,3,3a,7,7a-hexahydro-4H-4,7-epoxyisoindol-4-yl)methyl 2-bromo-2-methylpropanoatebromo-2-methylpropanoate] | CPT is released |  |  |
| CC[C@@]1(O)C(=O)OCc2c1cc1n(c2=O)Cc2cc3ccccc3nc2-1 [CPT, camptothecin] |  | stable | ~25 |
